Test results as given in US7064112B1, “Pharmaceutical compositions comprising an adenosine receptor agonist or antagonist” (Can-Fite Biopharma Ltd., priority 1999, dated 2006).

How the values were obtained:
[1] = system: HCT-116 human colon cancer cells; experiment: HCT-116 human colon carcinoma tumor growth in nude mice; assay type: in vivo; settings: for tumor growth (tumor size), combined therapy experiment: 5-FU 30 mg/kg i.p. 5 days, Cl-IB-MECA 5 μg/kg oral every other day, FIGS. 15 and 16
Experimental: Tumors were established by subcutaneous injection of 1×10^6 HCT-116 human colon cancer cells to nude mice (BALB/C origin) (Harlan, Jerusalem, Israel). […] Mice that were treated with the vehicle only (PBS). Each group consisted of 10 mice. Tumor growth rate was determined by measuring two orthogonal diameters of each tumor twice a week, and the tumor size was estimated according to the following formula: π/6[D1D2]. The results are depicted in FIG. 14. […] 1×10^6 HCT-116 cells were injected subcutaneously to nude mice. One day later, 5-FU (30 mg/kg body weight, in 0.2 ml PBS) was intraperitoneally injected and subsequently in 4 additional consecutive days. […] Mice that were treated either with the vehicle only (PBS) or with 5-FU served as control. Each group consisted of 10 mice. Tumor growth rate was determined by measuring two orthogonal diameters of each tumor twice a week, and the tumor size was estimated according to the following formula: π/6[D1D2].

[2] = Weight of nude mice treated with 5-FU and/or Cl-IB-MECA; assay type: in vivo, nude mice (BALB/C origin); settings: FIG. 11; for weight of the mice as compared to control: day 7, 10 and 14, 5-FU 30 mg/kg i.p. five days, or Cl-IB-MECA 6 μg/kg oral every second day, alone
[3] = system: Nb2-11C rat lymphoma cells; experiment: Nb2-11C lymphoma cell growth, cell count assay; assay type: cell-based; settings: for growth inhibition of Nb2-11C lymphoma cells by receptor agonists: 0.01 μM agonist, 48 hours, FIG. 5A; for effect of receptor antagonist on the effect of adenosine on proliferation of Nb2-11C cells: 0.1 μM antagonist in combination with adenosine 25 μM, FIG. 5B
Experimental: Nb2-11C rat lymphoma cells (1.2×10^4 cells/ml) were incubated for 48 hours in 96 well microtiter plates with 1 ml RPMI medium containing 5% fetal bovine serum. Either 25 μM adenosine, 0.01 μM of an adenosine receptor agonists (CPA, an A1RAg; DPMA, an A2RAg or IB-MECA, an A3RAg) or 0.1 μM of an adenosine receptor antagonists (DPCPX, an A1RAn; DMPX, an A2RAn; or MRS-1220, an A3RAn) in combination with adenosine (25 μM) was added.
Cultures containing cells suspended in RPMI medium with 5% FBS served as controls for the above detailed experiment. Extent of cell proliferation was measured by a cell count assay.
Briefly, Nb2-11C lymphoma or bone marrow cells were incubated in the presence of either adenosine, or IB-MECA.

[4] = system: bone marrow cells; experiment: Bone marrow cell proliferation, [3H]-thymidine incorporation assay; assay type: cell-based, C57BL/6J or ICR mice; settings: for reduction of the increase in bone marrow cell proliferation as compared to adenosine alone: antagonist in combination with adenosine
Experimental: Bone marrow cells derived from the femur of C57BL/6J mice were used. The cells were prepared as previously described.
For this purpose, bone marrow cells obtained from the femur of C57BL/6J or ICR mice were first disaggregated by passing through a 25 G needle. Then, the cells (3×10^5 cells/well, in 96 microtiter plates) were incubated with RPMI medium containing 10% fetal bovine serum (FBS) in the presence of adenosine (25 μM). Adenosine or agonists to the A1 and A3 adenosine receptors—CPA (an A1RAg, 0.01 μM), CCPA (an A1RAg, 0.01 μM), or IB-MECA (an A3RAg, 0.01 μM), were added to the bone marrow cultures in the absence of adenosine; an A1 adenosine receptor antagonist, DPCPX (0.1 μM), was added to a bone marrow culture in the presence of adenosine (25 μM).
Cultures containing cells suspended in RPMI medium and 5% FBS served as the control for the above detailed experiment.
[^3H]-Thymidine incorporation assay was used to evaluate the proliferation of the bone marrow cells. For this purpose, after 30 hours of incubation, each well was pulsed with 1 μCi [^3H]-Thymidine. After a total of 48 hours of incubation, the cells were harvested and the [^3H]-Thymidine uptake was determined in an LKB liquid scintillation counter (LKB, Piscataway, N.J., USA).
Cell proliferation was evaluated as described above.
The cumulative effect on the proliferation of bone marrow cells, when using a combination of an A1RAgm1 A3RAg, (CPA and IB-MECA) was evaluated. Cells, after being disaggregated, were incubated in the presence of either adenosine (25 μM), CPA (0.01 μM), IB-MECA (0.01 μM) or a combination of IB-MECA and CPA (each in a concentration of 0.01 μM) and further treated as described above.
In order to compare the effect of adenosine receptor antagonist on the proliferation of bone marrow cells, following the same methodology described above, cells were incubated with adenosine alone or in combination with either DMPX (an A2RAn), DPCPX (an A1RAn), MRS-1220 (an A3RAn) or with a combination of DPCPX and MRS-1220.
Cells pre-treated as described above, were incubated at different concentrations of IB-MECA (1 μM, 0.1 μM or 0.01 μM).
Bone marrow cells (3×10^6 cell/ml) were incubated in wells of 96 microtiter plates. […] Cell proliferation was measured by [^3H]-thymidine incorporation assay.
B-16 melanoma cells (5×10^5 cells/ml) and bone marrow cells (3×10^6 cells/ml) were incubated in wells of 96 microtiter plate. […] Cell proliferation was measured by the [^3H]-thymidine incorporation assay mentioned before.
Murine bone marrow cells were cultured as described above. […] The antagonist was added at a concentration of 10 nM.

[5] = system: white blood cells and bone marrow nucleated cells; experiment: Doxorubicin-induced myelotoxicity in ICR mice; assay type: in vivo; settings: doxorubicin 10 mg/kg i.p., Cl-IB-MECA 6 μg/kg oral at 24, 48, 72 hours
Experimental: ICR mice were treated with doxorubicin (injection of 10 mg/kg i.p. in 0.5 ml PBS). […] At 72 hours, 96 hours, 120 hours and 144 hours, the mice were sacrificed and blood samples were withdrawn. In addition, bone marrow cells were aspirated from the femur of the mice and a cell count of nucleated cells from this aspirated preparation was made, following staining of the preparation with Coomassie Blue.

[6] = system: peripheral blood leukocytes and neutrophils; settings: for total white blood cell count after cyclophosphamide: i.p. adenosine 25 μg/kg or IB-MECA 3 or 6 μg/kg at 48 and 72 hours, FIG. 10A
Experimental: A further experiment was conducted in order to evaluate the chemoprotective effect of A3RAg. Mice were treated with cyclophosphamide (50 mg/kg body weight in 0.3 ml PBS). After 48 and 72 hours from administration of the cytotoxic drug, the mice were injected i.p. with adenosine (25 μg/kg body weight) or with IB-MECA (3 or 6 μg/kg body weight in 0.2 ml PBS). The number of white blood cells (WBC) and neutrophils was tested.

[7] = system: B-16 melanoma cells; experiment: B-16 melanoma cell proliferation, [3H]-thymidine incorporation assay; assay type: cell-based, Murine; settings: FIG. 18
Experimental: B-16 melanoma cells (5×10^5 cells/ml) and bone marrow cells (3×10^6 cells/ml) were incubated in wells of 96 microtiter plate. The culture consisted of RPMI medium supplemented with 10% FTS: […] Cell proliferation was measured by the [^3H]-thymidine incorporation assay mentioned before.

[8] = system: white blood cells (WBC); settings: CYP 50 mg/kg i.p.; blood 124 hours after chemotherapy; FIG. 13
Experimental: Each group consisted of 10 mice and the experiment was repeated twice.
The CYP was injected intraperitoneally in 0.2 ml of PBS which served as the carrier.
Anti-G-CSF antibodies were intravenously injected (in 0.2 ml PBS) 72 hours following the administration of the chemotherapeutic drugs.
Blood samples were withdrawn 124 hours following chemotherapy. White blood cells (WBC) counts were made in a Coulter counter and differential cell counts were carried on smear preparations stained with May-Grundvald-Giemsa solution.

O=c1[nH]cc(F)c(=O)[nH]1 [5-FU, 5-fluoro-uracyl, reference compound]
tumor growth (tumor size), combined therapy experiment [1]: marked inhibition of tumor growth | weight of the mice as compared to control [2]: profound effect on the weight of the mice

OC[C@H]1O[C@@H](n2cnc3c(NC4CCCC4)ncnc32)[C@H](O)[C@@H]1O [CPA, N-cyclopentyladenosine]
growth inhibition of Nb2-11C lymphoma cells by receptor agonists [3]: No growth inhibition

CNC(=O)[C@H]1O[C@@H](n2cnc3c(NCc4cccc(I)c4)nc(Cl)nc32)[C@H](O)[C@@H]1O [Cl-IB-MECA]
effect on proliferation of bone marrow cells ([4]; 1 or 10 nM, FIG. 20): dose dependent | proliferation of bone marrow cells ([4]; Cl-IB-MECA 0.01 μM or 0.1 μM, FIG. 18): proliferation stimulation effect | number of peripheral white blood cells after doxorubicin ([5]; FIG. 12A): marked increase | number of bone marrow nucleated cells after doxorubicin ([5]; FIG. 12B): marked increase | tumor growth (tumor size), combined therapy experiment [1]: marked inhibition of tumor growth | tumor growth (tumor size) ([1]; Cl-IB-MECA 6 μg/kg oral every other day, FIG. 14): marked inhibition of tumor growth | white blood cells and neutrophils after chemotherapy, experiment with Cl-IB-MECA ([6]; mouse, in vivo): chemoprotective activity | proliferation of B-16 melanoma cells ([7]; Cl-IB-MECA 0.01 μM or 0.1 μM): inhibitory effect | 5-FU-induced weight loss ([2]; Cl-IB-MECA 6 μg/kg oral administered together with 5-FU 30 mg/kg i.p.): prevented some of this weight loss | weight of the mice as compared to control [2]: did essentially not give rise to any weight loss

C#CCn1c(=O)c2c(ncn2C)n(C)c1=O [DMPX, 3,7-dimethyl-1-propargyl-xantane, reference compound]
proliferation of bone marrow cells, adenosine in combination with receptor antagonist ([4]; compared to adenosine alone, FIG. 3B): increased proliferation of bone marrow cells which even exceeded that of adenosine alone | effect of receptor antagonist on the effect of adenosine on proliferation of Nb2-11C cells [3]: minor, however still significant effect

CCCn1c(=O)c2[nH]c(C3CCCC3)nc2n(CCC)c1=O [DPCPX, 1,3-dipropyl-8-cyclopentylxanthine, reference compound]
reduction of the increase in bone marrow cell proliferation as compared to adenosine alone ([4]; FIG. 3B): about 50% | effect of receptor antagonist on the effect of adenosine on proliferation of Nb2-11C cells [3]: essentially no effect

COc1cc(OC)cc(C(CNc2ncnc3c2ncn3[C@@H]2O[C@H](CO)[C@@H](O)[C@H]2O)c2ccccc2C)c1 (stereo partly drawn) [DPMA, N^6-[2-(3,5-dimethoxyphenyl)-2-(2-methylphenyl)-ethyl] adenosine]
growth inhibition of Nb2-11C lymphoma cells by receptor agonists [3]: lower growth inhibition

CNC(=O)[C@H]1O[C@@H](n2cnc3c(NCc4cccc(I)c4)ncnc32)[C@H](O)[C@@H]1O [IB-MECA, 1-deoxy-1-{6-[({3-iodophenyl}methyl)amino]-9H-purine-9-yl}-N-methyl-β-D-ribofuranuronamide]
effect on proliferation of bone marrow cells ([4]; 1 or 10 nM, FIG. 20): dose dependent | effect on proliferation of bone marrow cells ([4]; FIG. 7B): stimulating the proliferation of bone marrow cells | stimulation of bone marrow cell proliferation ([4]; IB-MECA 1 μM, 0.1 μM or 0.01 μM): stimulates proliferation of bone marrow in a dose dependent manner | growth inhibition of Nb2-11C lymphoma cells by receptor agonists [3]: markedly inhibited | effect on growth of tumor cells (Nb2-11C lymphoma) ([3]; FIG. 7A): inhibiting the growth of tumor cells | complete recovery of total white blood cell count after ([6]; cyclophosphamide 50 mg/kg, IB-MECA i.p. at 48 and 72 hours): 168 h | total white blood cell count after cyclophosphamide ([6]; cyclophosphamide 50 mg/kg): restored

O=C(Cc1ccccc1)Nc1nc2ccc(Cl)cc2c2nc(-c3ccco3)nn12 [MRS-1220, 9-chloro-2-(2-furanyl)-5-[(phenylacetyl)amino] [1,2,4,]-triazolo[1,5-c]quinazoline]
reduction of the increase in bone marrow cell proliferation as compared to adenosine alone ([4]; FIG. 3B): about 50% | effect of receptor antagonist on the effect of adenosine on proliferation of Nb2-11C cells [3]: substantially abolished | therapeutic effect of A3RAg (IB-MECA) when A3 receptor antagonist employed ([3]; FIGS. 7A–7B, tumor and normal cells): reversed

CCCOC(=O)c1c(-c2ccccc2)nc(CC)c(C(=O)SCC)c1CCC [MRS-1523, reference compound]
proliferation of bone marrow cells in the presence of MRS-1523 ([4]; with Cl-IB-MECA 0.01 μM or 0.1 μM, FIG. 18): unchanged versus control | proliferation of B-16 melanoma cells in the presence of MRS-1523 ([7]; with Cl-IB-MECA 0.01 μM or 0.1 μM): unchanged versus control

Nc1ncnc2c1ncn2[C@@H]1O[C@H](CO)[C@@H](O)[C@H]1O [adenosine]
total white blood cell count after cyclophosphamide ([6]; cyclophosphamide 50 mg/kg): restored

O=P1(N(CCCl)CCCl)NCCCO1 (stereo not drawn) [cyclophosphamide, Cyclophosphamide, reference compound]
number of peripheral blood WBC, cyclophosphamide only [8]: decline in the number of peripheral blood WBC | number of peripheral blood leukocytes and neutrophils, cytotoxic drug only ([6]; cyclophosphamide 50 mg/kg only): decline in the number of peripheral blood leukocytes and neutrophils
